Legend:
[1] = tested on: P. aeruginosa PAO1 biofilm; test: Disruption of established in vitro biofilm, CLSM with COMSTAT image analysis; format: cell-based, Pseudomonas aeruginosa; conditions: 256 μg/mL
Protocol: Biofilms of E. coli IR57 were grown on 96-well glass-bottomed plates in Mueller-Hinton (MH) broth for 24 h, before 50% of the supernatant was replaced with fresh MH broth with or without the epoxytiglienone compound added to a final concentration of 256 μg/mL (vehicle is ethanol). An ethanol equivalent blank was used as a further control treatment. The plates were then incubated for a further 24 h at 37° C.
Confocal laser scanning microscopy (CLSM) was then used to image the biofilms, following staining with Live/Dead® Baclight stain with phosphate buffered saline (PBS) added to each well before imaging with z-stack CLSM. The resultant images were analysed by COMSTAT software to produce measurements of (i) biofilm biomass volume or bio-volume (μm^3/μm^2) and (ii) DEAD/LIVE bacterial ratio.
The effects of the epoxytiglienones (Compounds 1, 4, 6 and the comparator compound CC-1) on disruption of established in vitro biofilms were further investigated with two other species of Gram-negative bacteria (Pseudomonas aeruginosa PA01 and Acinetobacter baumannii 7789) using methods described in Example 2 above. Cell permeabilisation following Compound 1, 4 and 6 treatment was also determined using SYTOX™ Green Nucleic Acid Stain with untreated control and positive control of 70% isopropanol.

[2] = tested on: human adult dermal fibroblasts (HDF); test: Microarray gene expression in fibroblasts in vitro; format: cell-based; conditions: 170 nM, within 2 to 4 hours
Protocol: (§1) In addition to disrupting the structure of biofilms comprising Gram-negative bacteria, effects of epoxytiglienones on regulation of genes involved in host response to bacterial infection were investigated in microarray studies with human adult epidermal keratinocytes (HEKa) and human adult dermal fibroblasts (HDF) in vitro.
(§2) For these studies, HEKa were cultured in EpiLife® Medium supplemented with Supplement S7 (both from Life Technologies, Carlsbad, CA, USA), while HDF were cultured in Medium 106 supplemented with LSGS (Low Serum Growth Supplement) (both from Life Technologies). Cells where then treated with vehicle or 170 nM Compound 4 for 0, 0.5, 1, 2, 4, 8, 24, 48 and 72 hours. RNA was extracted using a Qiagen RNeasy mini kit and biotinylated using an Illumina TotalPrep RNA Amplification Kit (Ambion, Austin, TX, USA). Labelled RNA was hybridised to HumanHT-12 v4 BeadChip Arrays (Illumina Inc, San Diego, CA, USA) and scanned according to standard Illumina protocols. Data were extracted in GenomeStudio (Illumina) using default analysis settings and no normalisation method. Resulting data were imported into GeneSpring GX (Agilent, Santa Clara, CA, USA. Expression values were normalised using quantile normalisation with default settings.

E. coli IR57 biofilm = test: Multiple particle tracking (MPT) of 200 nm FluoSpheres in established biofilm; format: cell-based, Escherichia coli
Protocol: The effect of three epoxytiglienones (Compounds 1, 4 and 6) on the assembly and permeability of established biofilms of E. coli was assessed using multiple particle tracking (MPT). MPT is a recently described technique, allowing simultaneous tracking of micron-size particles through biofilms using microscopy, from which the diffusion-based parameters of embedded particles within the extracellular polymeric matrix (EPS) of the biofilm can be determined (Cao et al. 2016). MPT measurements also allows for calculation of micro-rheological properties of the biofilm structure following treatment with test compounds.
E. coli biofilms were established and epoxytiglienone and control treatments applied as described in Example 2 above. Twenty-four hours after application of the treatments, the biofilms were stained with SYTO9® and 0.0025% of negatively-charged, carboxylate-modified FluoSpheres® (200 nm) added onto the biofilms and incubated for a further 2 hours. FluoSphere® particle movements within the biofilms were then captured on video using epifluorescence microscopy with a high frame-rate camera (33 ms). Particle trajectories were tracked using ImageJ softwaren (Mosaic) before calculation of three parameters of the 200 nm FluoSphere® particles: (i) ensemble diffusion coefficient (Deff), (ii) ensemble mean squared displacement (MSD) and (iii) creep compliance (a measure of resistance to mechanical deformation derived from the MSD vs lag time). Each treatment was replicated three times.

[3] = tested on: human adult epidermal keratinocytes (HEKa); test: Microarray gene expression in keratinocytes in vitro; format: cell-based; conditions: 170 nM
Protocol: as §1, §2

[4] = tested on: isolated human neutrophils; test: NETosis/necrosis assay, Hoescht/Sytox Green fluorescence; format: cell-based
Protocol: For these assays, neutrophils were isolated from fresh blood of a healthy human donor by lysis of a red blood cell pellet that had been obtained by Ficoll-Paque sedimentation. The neutrophils (˜4×10^6 cells/mL) were incubated with 10 μg/mL dihydroethidium (DHE) (Sigma-Aldrich) in complete culture medium at 37° C. for 15 min alongside an aliquot of unstained cells to be tested as unstained control.
NETosis/necrosis assays followed methods fully described by Brinkmann et al. 2010. Isolated neutrophils were plated into 96-well plates (RPMI1640, 10% FCS) and incubated with a 1:50,000 dilution of Hoescht (10 mg/mL) and Sytox® Green (5 mM). Compound 4 was added at six concentrations (0.005, 0.05, 0.5. 5, 50, 500 μM) and the cells incubated at 37° C., 5% CO2. Vehicle treated controls were included in all assays and there were three replicates of each assay. Hoescht/Sytox® Green fluorescence images were recorded for each well at 3 and 6 hours.

CCCCCC(=O)OC1C(C)C2(O)C(C3OC3(CO)C(O)C3(O)C(=O)C(C)=CC32)C2C(C)(C)C12OC(=O)CCCCC (stereo not shown) [Compound 4, 12,13-dihexanoyl-6,7-epoxy-4,5,9,12,13,20-hexahydroxy-1-tiglien-3-one]
biofilm distribution (CLSM) ([1]; compared to other treatments): significant effect | biofilm bio-volume (COMSTAT) ([1]; compared to other treatments (P<0.05)): significant effect | DEAD/LIVE bacterial ratio ([1]; vs untreated and ethanol blank controls): no significant differences | expression of chemokines/cytokines involved in PMNL recruitment (IL8, CXCL1) [2]: significant upregulation | Diffusion coefficient (Deff) ± standard deviation (E. coli IR57 biofilm; 200 nm negatively-charged carboxylate-modified FluoSpheres in E. coli IR57 biofilms, 256 μg/mL, 24 h treatment): 0.8449 ± 0.1250 cm^2 · s^−1 × 10^−9 | mean squared displacement (MSD) of FluoSphere particles (E. coli IR57 biofilm; E. coli IR57 biofilm, 200 nm FluoSpheres, vs untreated and ethanol blank controls): substantially higher | biofilm creep compliance (E. coli IR57 biofilm; E. coli IR57 biofilm, derived from MSD vs lag time, vs untreated and ethanol blank controls): increased | production of host defence peptides (DEFB2, DEFB3, DEFB4, RNASE7) ([3]; from 8 to 72 hours post treatment): significantly upregulated | expression of chemokines/cytokines involved in PMNL recruitment (IL8, CXCL1) ([3]; within 2 to 4 hours): significant upregulation | chromatin appearance in neutrophils (more diffuse) ([4]; 50 μM): NETosis has occurred | chromatin appearance in neutrophils (condensed) ([4]; 500 μM): necrosis has occurred | NETosis and necrosis of neutrophils ([4]; 3 hours after treatment, 50 μM and 500 μM): initially observed | NETosis and necrosis of neutrophils ([4]; 6 hours, four lower concentrations 0.005 μM-5 μM): evident

— patent US12514843B2, “Biofilm disruption” (QBIOTICS PTY LTD, priority 2019, dated 2026)
